According to ChEMBL document CHEMBL1909046, “DrugMatrix in vitro pharmacology data”:

Assays:
[1] = molecular target: Beta-2 adrenergic receptor (Homo sapiens, UniProt P07550); experiment: DRUGMATRIX: Adrenergic beta2 radioligand binding (ligand: [3H] CGP-12177); format: cell membranes, Membrane; conditions: cho; Not Active = under 50% inhibition at 10 µM
[2] = molecular target: Vascular endothelial growth factor receptor 1 (Homo sapiens, UniProt P17948); format: cell-based; conditions: huvec; also: in other assays of this panel Not Active means under 50% inhibition at 10 µM
[3] = molecular target: T1, C-X-C chemokine receptor type 1 (Homo sapiens, UniProt P25024); also: in other assays of this panel Not Active means under 50% inhibition at 10 µM
T1 sequence (P25024 whole entry): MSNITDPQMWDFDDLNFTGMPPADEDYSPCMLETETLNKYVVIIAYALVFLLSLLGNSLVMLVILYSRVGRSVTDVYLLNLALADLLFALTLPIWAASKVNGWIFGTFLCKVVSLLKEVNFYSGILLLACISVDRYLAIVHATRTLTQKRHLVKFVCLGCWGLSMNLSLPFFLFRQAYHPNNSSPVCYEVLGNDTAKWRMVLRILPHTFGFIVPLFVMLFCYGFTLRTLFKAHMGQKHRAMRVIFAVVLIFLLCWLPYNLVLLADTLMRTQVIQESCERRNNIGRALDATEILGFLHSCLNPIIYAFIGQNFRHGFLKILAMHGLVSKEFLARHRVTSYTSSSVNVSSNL

[4] = molecular target: T2, Cholecystokinin receptor type A (Homo sapiens, UniProt P32238); format: cell membranes, Membrane; conditions: 1321-n1; also: in other assays of this panel Not Active means under 50% inhibition at 10 µM
T2 sequence (P32238 whole entry): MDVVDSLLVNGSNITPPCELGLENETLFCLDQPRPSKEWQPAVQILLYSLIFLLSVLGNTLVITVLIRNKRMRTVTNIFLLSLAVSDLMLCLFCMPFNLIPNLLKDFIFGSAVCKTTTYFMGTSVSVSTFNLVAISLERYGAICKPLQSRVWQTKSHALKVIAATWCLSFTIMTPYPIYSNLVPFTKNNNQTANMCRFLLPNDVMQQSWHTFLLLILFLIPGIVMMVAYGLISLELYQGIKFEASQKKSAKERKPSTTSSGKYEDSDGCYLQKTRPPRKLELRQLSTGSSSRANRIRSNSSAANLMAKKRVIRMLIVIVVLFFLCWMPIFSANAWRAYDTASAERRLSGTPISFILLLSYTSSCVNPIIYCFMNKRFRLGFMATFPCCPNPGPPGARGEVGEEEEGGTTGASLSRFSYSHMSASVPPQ

D(4) dopamine receptor = molecular target: T3, D(4) dopamine receptor (Homo sapiens, UniProt P21917); experiment: DRUGMATRIX: Dopamine D4.2 radioligand binding (ligand: [3H] Spiperone); format: cell membranes, CHO-K1, Membrane; conditions: cho-k1; Not Active = under 50% inhibition at 10 µM
T3 sequence (P21917 whole entry): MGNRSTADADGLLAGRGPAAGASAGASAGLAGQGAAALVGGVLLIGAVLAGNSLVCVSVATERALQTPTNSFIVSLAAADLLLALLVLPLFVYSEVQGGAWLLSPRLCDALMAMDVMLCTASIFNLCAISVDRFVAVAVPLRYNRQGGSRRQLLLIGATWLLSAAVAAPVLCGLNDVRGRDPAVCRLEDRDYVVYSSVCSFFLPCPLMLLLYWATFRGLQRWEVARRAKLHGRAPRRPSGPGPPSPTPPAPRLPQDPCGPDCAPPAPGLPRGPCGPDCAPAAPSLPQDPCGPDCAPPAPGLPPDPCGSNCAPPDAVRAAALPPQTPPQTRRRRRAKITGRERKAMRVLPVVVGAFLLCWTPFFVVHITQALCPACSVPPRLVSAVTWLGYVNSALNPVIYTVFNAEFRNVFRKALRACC

Glycine receptor = Glycine receptor (Rattus norvegicus, UniProt P22771+P24524+P07727+P20781); format: cell membranes, Wistar, Spinal cord, Membrane; also: in other assays of this panel Not Active means under 50% inhibition at 10 µM
Adenosine receptor A1 = molecular target: T4, Adenosine receptor A1 (Homo sapiens, UniProt P30542); format: cell membranes, CHO, Membrane; conditions: cho
T4 sequence (P30542 whole entry): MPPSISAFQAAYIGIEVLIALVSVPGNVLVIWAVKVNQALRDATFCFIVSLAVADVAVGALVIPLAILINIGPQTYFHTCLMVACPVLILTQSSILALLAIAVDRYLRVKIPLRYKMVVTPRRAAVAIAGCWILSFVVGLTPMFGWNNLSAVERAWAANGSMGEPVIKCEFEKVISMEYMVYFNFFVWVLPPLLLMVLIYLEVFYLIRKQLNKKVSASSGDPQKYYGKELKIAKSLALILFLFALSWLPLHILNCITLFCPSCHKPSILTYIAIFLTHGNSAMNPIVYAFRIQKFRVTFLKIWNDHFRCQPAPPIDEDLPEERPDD

Measured: IC50

Beta-2 adrenergic receptor, sequence (P07550 whole entry): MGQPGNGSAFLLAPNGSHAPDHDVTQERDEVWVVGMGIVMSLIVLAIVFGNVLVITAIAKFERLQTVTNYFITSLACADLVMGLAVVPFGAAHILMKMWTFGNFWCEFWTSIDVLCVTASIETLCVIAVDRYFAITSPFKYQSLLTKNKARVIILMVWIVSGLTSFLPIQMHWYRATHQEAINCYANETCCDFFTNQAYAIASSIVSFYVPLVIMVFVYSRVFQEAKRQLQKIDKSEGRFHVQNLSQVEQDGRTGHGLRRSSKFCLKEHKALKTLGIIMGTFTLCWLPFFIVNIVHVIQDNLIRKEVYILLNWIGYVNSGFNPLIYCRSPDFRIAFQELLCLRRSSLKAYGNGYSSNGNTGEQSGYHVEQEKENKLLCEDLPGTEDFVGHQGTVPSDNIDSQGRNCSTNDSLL
Vascular endothelial growth factor receptor 1, sequence (P17948 whole entry): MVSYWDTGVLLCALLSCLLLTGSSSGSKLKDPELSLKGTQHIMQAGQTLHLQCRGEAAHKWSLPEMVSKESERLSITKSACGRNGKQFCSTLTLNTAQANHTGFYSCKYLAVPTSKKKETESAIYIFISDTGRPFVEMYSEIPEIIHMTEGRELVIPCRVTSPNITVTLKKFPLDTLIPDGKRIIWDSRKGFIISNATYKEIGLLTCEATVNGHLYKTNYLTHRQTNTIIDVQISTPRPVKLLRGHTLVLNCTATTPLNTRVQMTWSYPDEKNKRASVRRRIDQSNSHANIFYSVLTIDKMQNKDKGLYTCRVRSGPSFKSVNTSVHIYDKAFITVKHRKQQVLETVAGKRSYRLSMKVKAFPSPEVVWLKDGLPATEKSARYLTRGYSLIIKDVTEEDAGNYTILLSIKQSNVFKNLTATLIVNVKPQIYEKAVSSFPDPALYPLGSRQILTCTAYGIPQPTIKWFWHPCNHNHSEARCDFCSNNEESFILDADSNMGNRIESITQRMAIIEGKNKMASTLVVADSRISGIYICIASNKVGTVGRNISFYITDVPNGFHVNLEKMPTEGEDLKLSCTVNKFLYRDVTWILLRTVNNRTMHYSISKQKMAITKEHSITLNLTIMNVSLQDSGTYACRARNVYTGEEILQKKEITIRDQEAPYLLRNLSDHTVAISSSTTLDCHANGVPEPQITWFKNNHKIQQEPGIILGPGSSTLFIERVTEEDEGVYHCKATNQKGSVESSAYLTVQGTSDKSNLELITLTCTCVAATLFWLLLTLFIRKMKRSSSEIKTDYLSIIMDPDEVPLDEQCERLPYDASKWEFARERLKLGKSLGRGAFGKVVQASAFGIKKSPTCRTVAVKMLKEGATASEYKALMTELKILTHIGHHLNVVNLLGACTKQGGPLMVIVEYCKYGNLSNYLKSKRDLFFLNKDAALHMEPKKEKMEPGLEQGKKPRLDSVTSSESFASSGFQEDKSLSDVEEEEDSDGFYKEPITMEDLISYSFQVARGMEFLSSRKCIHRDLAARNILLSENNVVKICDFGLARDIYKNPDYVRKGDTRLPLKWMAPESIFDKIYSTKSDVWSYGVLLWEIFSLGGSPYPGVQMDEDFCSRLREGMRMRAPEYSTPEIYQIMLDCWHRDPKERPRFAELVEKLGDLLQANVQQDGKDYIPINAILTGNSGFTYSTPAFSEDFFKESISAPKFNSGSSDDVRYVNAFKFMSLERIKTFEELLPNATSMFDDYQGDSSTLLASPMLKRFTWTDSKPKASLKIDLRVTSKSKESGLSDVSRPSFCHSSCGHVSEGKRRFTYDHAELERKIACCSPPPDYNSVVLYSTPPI

N[C@@H]1[C@H]2CN(c3nc4c(cc3F)c(=O)c(C(=O)O)cn4-c3ccc(F)cc3F)C[C@@H]12 [TROVAFLOXACIN]
Not Active: all assays above

CC[C@@H](CO)NC(=O)[C@@H]1C=C2c3cccc4[nH]cc(c34)C[C@H]2N(C)C1 [METHYLERGONOVINE]
Not Active: all assays above

Cc1cccc(N(C)C(=S)Oc2ccc3ccccc3c2)c1 [TOLNAFTATE]
Not Active: all assays above

Cc1oncc1C(=O)Nc1ccc(C(F)(F)F)cc1 [LEFLUNOMIDE]
Not Active: all assays above

Nc1nc2ccc(OC(F)(F)F)cc2s1 [RILUZOLE]
Not Active: all assays above

Cc1c(C)c2c(c(C)c1O)CCC(C)(COc1ccc(CC3SC(=O)NC3=O)cc1)O2 (centres undefined) [TROGLITAZONE]
Not Active: all assays above

Cc1nc2n(c(=O)c1CCN1CCC(c3noc4cc(F)ccc34)CC1)CCCC2 [RISPERIDONE]
Not Active: all assays above

CCCOc1ccccc1-c1nc2nn[nH]c2c(=O)[nH]1 [ZAPRINAST]
Not Active: all assays above

CC[C@]1(O)C[C@H]2CN(CCc3c([nH]c4ccccc34)[C@@](C(=O)OC)(c3cc4c(cc3OC)N(C=O)[C@H]3[C@@](O)(C(=O)OC)[C@H](OC(C)=O)[C@]5(CC)C=CCN6CC[C@]43[C@@H]65)C2)C1 [VINCRISTINE]
Not Active: all assays above

COc1c(C)c2c(c(O)c1C/C=C(\C)CCC(=O)O)C(=O)OC2 [MYCOPHENOLIC ACID]
Not Active: all assays above

CSc1ccc(/C=C2/C(C)=C(CC(=O)O)c3cc(F)ccc32)cc1 [SULINDAC SULFIDE]
Not Active: all assays above

O=NN(CCCl)C(=O)NC1CCCCC1 [LOMUSTINE]
Not Active: all assays above
